Data reported in US11725011B2, “Bicyclic urea kinase inhibitors and uses thereof” (The Broad Institute, Inc., priority 2016, dated 2023).

Legend:
Test in all cases: KINOMEscan
Assay type in all cases: binding
Details in all cases: 1 uM
AKT1 = AKT1 (Homo sapiens (Human), UniProt P31749)
MAP4K2 = MAP4K2 (Homo sapiens (Human), UniProt Q12851)
[1] = target: RSK2 (Kin.Dom.2-C-terminal) (Homo sapiens (Human), UniProt P51812)
IKK-beta = IKK-beta (Homo sapiens (Human), UniProt O14920)
MLK3 = MLK3 (Homo sapiens (Human), UniProt Q16584)
ZAK = ZAK (Homo sapiens (Human), UniProt Q9NYL2)
EPHB4 = EPHB4 (Homo sapiens (Human), UniProt P54760)
MST4 = MST4 (Homo sapiens (Human), UniProt Q9P289)
CSNK1A1 = CSNK1A1 (Homo sapiens (Human), UniProt P48729)
GRK4 = GRK4 (Homo sapiens (Human), UniProt P32298)
PRKX = PRKX (Homo sapiens (Human), UniProt P51817)
MAP3K4 = MAP3K4 (Homo sapiens (Human), UniProt Q9Y6R4)
AXL = AXL (Homo sapiens (Human), UniProt P30530)
PIK3CB = PIK3CB (Homo sapiens (Human), UniProt P42338)
AMPK-alpha2 = AMPK-alpha2 (Homo sapiens (Human), UniProt P54646)
[2] = target: TYK2 (JH1domain-catalytic) (Homo sapiens (Human), UniProt P29597)
PIK3CA (Q546K) = PIK3CA (Q546K) (Homo sapiens (Human), UniProt P42336, Q546K)
NEK10 = NEK10 (Homo sapiens (Human), UniProt Q6ZWH5)
STK36 = STK36 (Homo sapiens (Human), UniProt Q9NRP7)
IGF1R = IGF1R (Homo sapiens (Human), UniProt P08069)
MYO3A = MYO3A (Homo sapiens (Human), UniProt Q8NEV4)
PIP5K1A = PIP5K1A (Homo sapiens (Human), UniProt Q99755)
PRKD2 = PRKD2 (Homo sapiens (Human), UniProt Q9BZL6)
FLT3 (N841I) = FLT3 (N841I) (Homo sapiens (Human), UniProt P36888, N841I)
ACVR2A = ACVR2A (Homo sapiens (Human), UniProt P27037)
CAMK2B = CAMK2B (Homo sapiens (Human), UniProt Q13554)
MLCK = MLCK (Homo sapiens (Human), UniProt Q32MK0)
ACVR2B = ACVR2B (Homo sapiens (Human), UniProt Q13705)
PIP5K1C = PIP5K1C (Homo sapiens (Human), UniProt O60331)
AURKB = AURKB (Homo sapiens (Human), UniProt Q96GD4)
EPHB2 = EPHB2 (Homo sapiens (Human), UniProt P29323)
[3] = target: ABL1 (H396P)-nonphosphorylated (Homo sapiens (Human), UniProt P00519, H396P)
DAPK3 = DAPK3 (Homo sapiens (Human), UniProt O43293)
NEK5 = NEK5 (Homo sapiens (Human), UniProt Q6P3R8)
MST2 = MST2 (Homo sapiens (Human), UniProt Q13188)
CAMK2G = CAMK2G (Homo sapiens (Human), UniProt Q13555)
MERTK = MERTK (Homo sapiens (Human), UniProt Q12866)
TIE1 = TIE1 (Homo sapiens (Human), UniProt P35590)
[4] = target: ABL1 (F317L)-phosphorylated (Homo sapiens (Human), UniProt P00519, F317L)
[5] = target: RSK2 (Kin.Dom.1-N-terminal) (Homo sapiens (Human), UniProt P51812)
MEK5 = MEK5 (Homo sapiens (Human), UniProt Q13163)

Sequence of PIK3CA (Q546K) (P42336 whole entry Q546K): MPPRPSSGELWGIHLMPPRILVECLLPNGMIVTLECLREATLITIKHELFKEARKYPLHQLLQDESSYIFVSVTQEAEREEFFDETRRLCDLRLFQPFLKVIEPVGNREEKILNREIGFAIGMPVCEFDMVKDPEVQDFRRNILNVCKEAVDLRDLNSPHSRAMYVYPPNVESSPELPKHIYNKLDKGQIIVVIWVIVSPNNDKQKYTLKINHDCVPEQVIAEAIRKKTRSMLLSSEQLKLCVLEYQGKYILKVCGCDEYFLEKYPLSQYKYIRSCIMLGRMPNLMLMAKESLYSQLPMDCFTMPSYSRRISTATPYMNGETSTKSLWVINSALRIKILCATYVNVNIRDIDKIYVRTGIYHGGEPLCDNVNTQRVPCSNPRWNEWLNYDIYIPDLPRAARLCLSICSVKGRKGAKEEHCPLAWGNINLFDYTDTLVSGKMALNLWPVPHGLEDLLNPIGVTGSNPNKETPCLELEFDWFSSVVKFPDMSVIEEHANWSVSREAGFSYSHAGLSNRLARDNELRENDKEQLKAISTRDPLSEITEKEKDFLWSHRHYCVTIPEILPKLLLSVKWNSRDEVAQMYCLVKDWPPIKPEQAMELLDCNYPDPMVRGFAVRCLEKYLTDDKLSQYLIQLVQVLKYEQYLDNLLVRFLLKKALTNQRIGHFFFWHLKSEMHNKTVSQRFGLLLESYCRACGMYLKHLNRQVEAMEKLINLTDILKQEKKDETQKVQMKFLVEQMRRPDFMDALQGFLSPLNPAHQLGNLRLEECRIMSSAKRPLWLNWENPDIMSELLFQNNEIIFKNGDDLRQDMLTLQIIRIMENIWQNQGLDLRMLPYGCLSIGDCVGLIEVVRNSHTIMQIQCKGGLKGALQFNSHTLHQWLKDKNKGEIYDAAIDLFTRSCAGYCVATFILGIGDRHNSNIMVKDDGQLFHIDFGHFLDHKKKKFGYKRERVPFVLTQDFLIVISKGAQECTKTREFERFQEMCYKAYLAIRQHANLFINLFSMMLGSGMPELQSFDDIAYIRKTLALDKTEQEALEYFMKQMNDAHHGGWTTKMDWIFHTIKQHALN
Sequence of TYK2 (JH1domain-catalytic) (P29597 897-1176): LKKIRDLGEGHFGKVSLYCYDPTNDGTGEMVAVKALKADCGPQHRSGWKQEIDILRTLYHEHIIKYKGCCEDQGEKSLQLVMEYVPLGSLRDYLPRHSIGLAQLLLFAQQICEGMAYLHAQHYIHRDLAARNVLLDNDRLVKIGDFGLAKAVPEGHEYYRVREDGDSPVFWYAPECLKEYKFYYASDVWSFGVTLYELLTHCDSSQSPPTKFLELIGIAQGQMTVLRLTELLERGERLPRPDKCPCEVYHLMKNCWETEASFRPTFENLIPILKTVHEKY
Sequence of CAMK2G (Q13555 whole entry): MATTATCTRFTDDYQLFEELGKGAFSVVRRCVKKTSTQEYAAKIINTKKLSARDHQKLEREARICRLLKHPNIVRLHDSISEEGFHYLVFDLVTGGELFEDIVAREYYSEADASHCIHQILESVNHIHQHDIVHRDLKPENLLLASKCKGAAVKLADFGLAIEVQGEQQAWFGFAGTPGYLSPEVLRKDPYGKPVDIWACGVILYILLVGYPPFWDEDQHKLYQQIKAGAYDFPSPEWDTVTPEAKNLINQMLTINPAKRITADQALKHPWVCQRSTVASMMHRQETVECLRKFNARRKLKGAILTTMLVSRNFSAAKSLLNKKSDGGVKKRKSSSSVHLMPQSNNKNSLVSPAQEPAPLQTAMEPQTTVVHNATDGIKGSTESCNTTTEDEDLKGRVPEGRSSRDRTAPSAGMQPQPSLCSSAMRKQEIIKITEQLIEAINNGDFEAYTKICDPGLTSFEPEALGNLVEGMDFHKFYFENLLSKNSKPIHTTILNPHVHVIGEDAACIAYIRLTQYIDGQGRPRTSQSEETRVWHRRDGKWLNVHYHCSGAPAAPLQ
Sequence of DAPK3 (O43293 whole entry): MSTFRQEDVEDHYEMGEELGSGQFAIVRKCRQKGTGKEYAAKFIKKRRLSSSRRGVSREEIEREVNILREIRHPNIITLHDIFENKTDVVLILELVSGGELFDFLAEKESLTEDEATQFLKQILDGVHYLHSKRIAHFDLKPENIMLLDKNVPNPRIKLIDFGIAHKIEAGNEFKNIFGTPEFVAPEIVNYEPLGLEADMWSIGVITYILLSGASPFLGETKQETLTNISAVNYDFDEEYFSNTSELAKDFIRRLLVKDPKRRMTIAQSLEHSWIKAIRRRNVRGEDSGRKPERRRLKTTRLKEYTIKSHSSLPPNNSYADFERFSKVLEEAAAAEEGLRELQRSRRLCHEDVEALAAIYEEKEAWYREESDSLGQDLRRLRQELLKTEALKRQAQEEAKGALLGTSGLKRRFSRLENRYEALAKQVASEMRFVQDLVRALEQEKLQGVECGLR
Sequence of MST2 (Q13188 whole entry): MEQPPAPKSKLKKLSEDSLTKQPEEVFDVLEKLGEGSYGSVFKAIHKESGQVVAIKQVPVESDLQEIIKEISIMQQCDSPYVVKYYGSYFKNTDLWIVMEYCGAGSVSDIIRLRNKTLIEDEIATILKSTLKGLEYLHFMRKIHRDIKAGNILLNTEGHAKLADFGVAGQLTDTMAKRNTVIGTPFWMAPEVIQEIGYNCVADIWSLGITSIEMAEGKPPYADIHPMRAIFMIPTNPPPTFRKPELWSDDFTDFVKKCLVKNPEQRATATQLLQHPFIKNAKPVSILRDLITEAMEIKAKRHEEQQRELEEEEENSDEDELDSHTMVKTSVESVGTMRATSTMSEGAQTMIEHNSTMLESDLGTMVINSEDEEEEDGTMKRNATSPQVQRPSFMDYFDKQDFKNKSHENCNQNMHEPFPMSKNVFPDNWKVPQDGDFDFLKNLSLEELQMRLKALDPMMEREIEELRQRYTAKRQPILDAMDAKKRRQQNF
Sequence of NEK5 (Q6P3R8 whole entry): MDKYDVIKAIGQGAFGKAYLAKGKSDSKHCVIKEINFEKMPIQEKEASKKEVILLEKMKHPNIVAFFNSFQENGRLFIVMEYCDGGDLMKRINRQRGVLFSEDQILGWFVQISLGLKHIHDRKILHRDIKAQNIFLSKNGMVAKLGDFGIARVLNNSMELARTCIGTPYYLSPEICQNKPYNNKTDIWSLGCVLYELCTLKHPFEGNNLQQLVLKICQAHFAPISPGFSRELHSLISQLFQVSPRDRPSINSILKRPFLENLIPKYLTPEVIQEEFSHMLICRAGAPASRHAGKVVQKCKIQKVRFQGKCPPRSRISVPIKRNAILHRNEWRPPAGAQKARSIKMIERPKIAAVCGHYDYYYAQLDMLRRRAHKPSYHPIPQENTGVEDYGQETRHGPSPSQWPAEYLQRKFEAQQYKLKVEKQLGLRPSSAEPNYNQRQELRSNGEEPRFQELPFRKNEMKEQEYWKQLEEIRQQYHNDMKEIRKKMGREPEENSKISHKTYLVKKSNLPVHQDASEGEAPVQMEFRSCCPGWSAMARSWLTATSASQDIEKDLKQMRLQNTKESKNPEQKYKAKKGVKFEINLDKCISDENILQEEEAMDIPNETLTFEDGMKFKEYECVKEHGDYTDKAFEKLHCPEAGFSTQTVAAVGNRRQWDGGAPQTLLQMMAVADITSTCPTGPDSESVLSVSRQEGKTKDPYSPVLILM
Sequence of AMPK-alpha2 (P54646 whole entry): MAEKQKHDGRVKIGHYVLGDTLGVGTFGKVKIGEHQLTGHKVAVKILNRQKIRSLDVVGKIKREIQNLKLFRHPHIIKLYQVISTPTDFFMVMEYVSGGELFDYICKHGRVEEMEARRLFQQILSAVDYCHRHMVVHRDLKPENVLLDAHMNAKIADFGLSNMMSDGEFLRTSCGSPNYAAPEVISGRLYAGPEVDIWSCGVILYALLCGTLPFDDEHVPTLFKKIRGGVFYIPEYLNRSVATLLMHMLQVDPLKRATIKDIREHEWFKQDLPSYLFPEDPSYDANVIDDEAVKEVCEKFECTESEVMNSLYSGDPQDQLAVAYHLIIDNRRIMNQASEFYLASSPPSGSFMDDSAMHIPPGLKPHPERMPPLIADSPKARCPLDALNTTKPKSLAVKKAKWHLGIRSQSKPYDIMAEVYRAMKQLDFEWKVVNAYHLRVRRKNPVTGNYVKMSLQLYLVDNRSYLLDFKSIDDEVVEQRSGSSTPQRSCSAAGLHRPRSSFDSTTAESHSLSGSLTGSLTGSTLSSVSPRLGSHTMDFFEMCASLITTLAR
Sequence of PIP5K1A (Q99755 whole entry): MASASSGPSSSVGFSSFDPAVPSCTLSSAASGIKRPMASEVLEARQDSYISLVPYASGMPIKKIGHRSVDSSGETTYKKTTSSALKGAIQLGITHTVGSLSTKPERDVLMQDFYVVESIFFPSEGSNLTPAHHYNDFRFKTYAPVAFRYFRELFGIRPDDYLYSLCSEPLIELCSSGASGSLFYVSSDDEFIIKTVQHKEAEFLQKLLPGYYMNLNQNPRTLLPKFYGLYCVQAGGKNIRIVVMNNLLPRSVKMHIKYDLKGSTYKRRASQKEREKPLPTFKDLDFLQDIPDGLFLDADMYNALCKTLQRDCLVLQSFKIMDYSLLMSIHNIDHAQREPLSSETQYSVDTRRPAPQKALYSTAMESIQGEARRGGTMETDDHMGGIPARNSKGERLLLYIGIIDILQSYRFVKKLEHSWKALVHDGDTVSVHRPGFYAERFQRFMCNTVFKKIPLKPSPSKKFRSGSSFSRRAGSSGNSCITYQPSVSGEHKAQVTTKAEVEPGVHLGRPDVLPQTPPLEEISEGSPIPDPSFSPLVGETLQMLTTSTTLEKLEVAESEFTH
Sequence of CSNK1A1 (P48729 whole entry): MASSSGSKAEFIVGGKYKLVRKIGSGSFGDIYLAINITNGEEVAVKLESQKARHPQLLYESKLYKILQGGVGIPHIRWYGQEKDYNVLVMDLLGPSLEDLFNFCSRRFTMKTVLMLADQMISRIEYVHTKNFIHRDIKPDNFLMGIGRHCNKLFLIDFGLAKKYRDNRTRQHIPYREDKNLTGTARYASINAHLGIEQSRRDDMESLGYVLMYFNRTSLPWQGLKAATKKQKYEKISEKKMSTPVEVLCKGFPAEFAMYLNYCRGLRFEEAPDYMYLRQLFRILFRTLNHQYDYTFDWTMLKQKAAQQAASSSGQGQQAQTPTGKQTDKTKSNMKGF

COc1ccc(N2C(=O)N(c3c(C)cccc3C)Cc3cnc(Nc4ccc(N5CCN(C)CC5)cc4)nc32)c(OC)c1 [HG-11-136-01]
KINOMEscan AKT1 (AKT1): 100 | KINOMEscan MAP4K2 (MAP4K2): 0.3 | KINOMEscan RSK2 (Kin.Dom.2-C-terminal) [1]: 51 | KINOMEscan IKK-beta (IKK-beta): 80 | KINOMEscan MLK3 (MLK3): 28 | KINOMEscan ZAK (ZAK): 1.2 | KINOMEscan EPHB4 (EPHB4): 0 | KINOMEscan MST4 (MST4): 2.8 | KINOMEscan CSNK1A1 (CSNK1A1): 100 | KINOMEscan GRK4 (GRK4): 26 | KINOMEscan PRKX (PRKX): 100 | KINOMEscan MAP3K4 (MAP3K4): 16 | KINOMEscan AXL (AXL): 25 | KINOMEscan PIK3CB (PIK3CB): 92 | KINOMEscan AMPK-alpha2 (AMPK-alpha2): 30 | KINOMEscan TYK2 (JH1domain-catalytic) [2]: 5.6 | KINOMEscan PIK3CA (Q546K) (PIK3CA (Q546K)): 94 | KINOMEscan NEK10 (NEK10): 9.6 | KINOMEscan STK36 (STK36): 0 | KINOMEscan IGF1R (IGF1R): 100 | KINOMEscan MYO3A (MYO3A): 40 | KINOMEscan PIP5K1A (PIP5K1A): 14 | KINOMEscan PRKD2 (PRKD2): 3.6 | KINOMEscan FLT3 (N841I) (FLT3 (N841I)): 11 | KINOMEscan ACVR2A (ACVR2A): 5 | KINOMEscan CAMK2B (CAMK2B): 90 | KINOMEscan MLCK (MLCK): 100 | KINOMEscan ACVR2B (ACVR2B): 3.2 | KINOMEscan PIP5K1C (PIP5K1C): 70 | KINOMEscan AURKB (AURKB): 26 | KINOMEscan EPHB2 (EPHB2): 0 | KINOMEscan ABL1 (H396P)-nonphosphorylated [3]: 0 | KINOMEscan DAPK3 (DAPK3): 63 | KINOMEscan NEK5 (NEK5): 98 | KINOMEscan MST2 (MST2): 0.75 | KINOMEscan CAMK2G (CAMK2G): 100 | KINOMEscan MERTK (MERTK): 5.6 | KINOMEscan TIE1 (TIE1): 30 | KINOMEscan ABL1 (F317L)-phosphorylated [4]: 1.8 | KINOMEscan RSK2 (Kin.Dom.1-N-terminal) [5]: 12 | KINOMEscan MEK5 (MEK5): 0.1
